This note sets out measurements from ChEMBL document CHEMBL4665638, “Second Generation Inhibitors of HIV-1 Maturation” (ACS Med Chem Lett, 2019).

As a reminder, the EC50 is the concentration that produces a half-maximal response. Usually AUC stands for the area under the concentration-time curve, a measure of exposure. As a reminder, the bioavailability is the share of a dose that reaches the circulation, judged against a reference dose that is usually intravenous. The term solubility denotes the concentration that dissolves in the medium under given conditions.

Bounds are passed on as bounds.

A short description of series [1]: Binding affinity to HIV-1 CA-SP1 cleavage site of Gag-pol protein harboring deltaV370 mutant assessed as inhibition of HIV-1 maturation. Also on record: species or system Human immunodeficiency virus 1.
The nature of series [2]: Binding affinity to wild type HIV-1 NL4-3 CA-SP1 cleavage site of Gag-Pol protein assessed as inhibition of HIV-1 maturation. Also on record: species or system Human immunodeficiency virus 1.
Series [3] can be described thus: Binding affinity to wild type HIV-1 NL4-3 CA-SP1 cleavage site of Gag-Pol protein assessed as inhibition of HIV-1 maturation in presence of human serum albumin. Also on record: species or system Human immunodeficiency virus 1.
Series [4] is described as follows: AUC in rat at 5 mg/kg, po measured for 6 hrs. Also on record: time 6 hrs, dose 5 mg/kg. Type of series: ADME, organism-based. Particulars: in vivo.
Series [5] concerns Human immunodeficiency virus 1. As to the kind of experiment: Ratio of EC50 for wild type HIV-1 NL4-3 CA-SP1 cleavage site of Gag-Pol protein in presence of human serum albumin to EC50 for wild type HIV-1 NL4-3 CA-SP1 cleavage site of Gag-Pol protein.
A short description of series [6]: Binding affinity to HIV-1 CA-SP1 cleavage site of Gag-Pol protein harboring V370A mutant assessed as inhibition of HIV-1 maturation. Also on record: species or system Human immunodeficiency virus 1.
A short description of series [7]: Clearance in rat at 5 mg/kg, po or 1 mg/kg, iv. Type of series: ADME, organism-based. Particulars: in vivo.
A short description of series [8]: AUC in rat for 6 hrs. Type of series: ADME. Also on record: time 6 hrs. The following applies: in vivo.
Series [9] can be described thus: Oral bioavailability in cynomolgus monkey. Type of series: ADME, organism-based, Macaca fascicularis. Particulars: in vivo.
Series [10] can be described thus: Binding affinity to HIV-1 CA-SP1 cleavage site of Gag-Pol protein harboring deltaV370/Thr371Ala mutant assessed as inhibition of HIV-1 maturation. Set-up: species or system Human immunodeficiency virus 1.
The nature of series [11]: Volume of distribution at steady state in dog. Type of series: ADME, Canis lupus familiaris. Particulars: in vivo, read-out: Vdss.
The nature of series [12]: Aqueous solubility of the compound. Type of series: physicochemical.
The nature of series [13]: Binding affinity to HIV-1 CA-SP1 cleavage site of Gag-Pol protein harboring V362I mutant assessed as inhibition of HIV-1 maturation. Also on record: species or system Human immunodeficiency virus 1.
A short description of series [14]: Oral bioavailability in dog. Type of series: ADME, organism-based, Canis lupus familiaris. Particulars: in vivo.
A short description of series [15]: Volume of distribution at steady state in cynomolgus monkey. Type of series: ADME, Macaca fascicularis. Particulars: in vivo, read-out: Vdss.
Series [16] can be described thus: Binding affinity to HIV-1 CA-SP1 cleavage site of Gag-Pol protein harboring Thr371Ala mutant assessed as inhibition of HIV-1 maturation. Set-up: species or system Human immunodeficiency virus 1.
The nature of series [17]: Binding affinity to HIV-1 CA-SP1 cleavage site of Gag-Pol protein harboring deltaThr371 mutant assessed as inhibition of HIV-1 maturation. Set-up: species or system Human immunodeficiency virus 1.
A short description of series [18]: Binding affinity to HIV-1 CA-SP1 cleavage site of Gag-Pol protein harboring V370M mutant assessed as inhibition of HIV-1 maturation. Set-up: species or system Human immunodeficiency virus 1.
A short description of series [19]: Clearance in dog. Type of series: ADME, Canis lupus familiaris. The following applies: in vivo.
A short description of series [20]: Binding affinity to HIV-1 CA-SP1 cleavage site of Gag-Pol protein harboring […] mutant assessed as inhibition of HIV-1 maturation. Set-up: species or system Human immunodeficiency virus 1.

As to `C=C(C)[C@@H]1CC[C@]2(C(=O)NCCN(C)C)CC[C@]3(C)[C@H](CC[C@@H]4[C@@]5(C)CC=C(c6ccc(C(=O)O)cc6)C(C)(C)[C@@H]5CC[C@]43C)[C@@H]12`, in series [1], the EC50 is 31 nM.

Take `C=C(C)[C@@H]1CC[C@]2(NCCN3CCS(=O)(=O)CC3)CC[C@]3(C)[C@H](CC[C@@H]4[C@@]5(C)CC=C(c6ccc(C(=O)O)c(F)c6)C(C)(C)[C@@H]5CC[C@]43C)[C@@H]12`: the EC50 in series [2] came out at 3 nM; in [1] it was 10 nM; in series [3] it was 13 nM. In series [4], this compound had an AUC at 6 h of 25.5 µM·h.

For `C=C(C)[C@@H]1CC[C@]2(C(=O)O)CC[C@]3(C)[C@H](CC[C@@H]4[C@@]5(C)CC=C(c6ccc(C(=O)O)cc6F)C(C)(C)[C@@H]5CC[C@]43C)[C@@H]12`, the Ratio EC50 in series [5] was found to be 1. Besides, the EC50 in [2] stood at 55 nM; in [6] it was 1400 nM; in series [3] it was 50 nM.

As for `C=C(C)[C@@H]1CC[C@]2(C(=O)NCCNC(C)=O)CC[C@]3(C)[C@H](CC[C@@H]4[C@@]5(C)CC=C(c6ccc(C(=O)O)cc6)C(C)(C)[C@@H]5CC[C@]43C)[C@@H]12`, the half-maximal effective concentration (EC50) in series [2] amounted to 5 nM; in series [6], 24 nM; in series [1], 361 nM; in series [3], 22 nM.

The compound `C=C(C)[C@@H]1CC[C@]2(C(=O)O)CC[C@]3(C)[C@H](CC[C@@H]4[C@@]5(C)CC=C(c6ccc(C(=O)O)cc6)C(C)(C)[C@@H]5CC[C@]43C)[C@@H]12` had a clearance in series [7] of 1 mL/min/kg. Moreover, the EC50 in series [1] was > 3000 nM. In series [8], the AUC at 6 h worked out at 5.72 µM·h.

Regarding `C=C(C)[C@@H]1CC[C@]2(NCCN3CCS(=O)(=O)CC3)CC[C@]3(C)[C@H](CC[C@@H]4[C@@]5(C)CC=C(c6ccc(C(=O)O)cc6)C(C)(C)[C@@H]5CC[C@]43C)[C@@H]12` [BMS-955176], the bioavailability in [9] is 4%; in [14], 9%. For the same compound, the EC50 stood at 7 nM in series [10]; 3 nM in series [6]; 4 nM in series [13]; 13 nM in series [1]; 10 nM in series [3]; 3 nM in series [16]. The concentration for a half-maximal effect (EC50) amounted to 5 nM in series [17] and 3 nM in series [18]. Further, the results for the Vd in [11] and in series [15] were 0.43 L/kg and 0.36 L/kg, respectively. Besides, the solubility in series [12] is < 1 µg/mL. The AUC at 6 h in series [4] stood at 14.2 µM·h. Besides, the clearance in series [19] was determined as 0.13 mL/min/kg.

Turning to `C=C(C)[C@@H]1CC[C@]2(CNCCCN3CCS(=O)(=O)CC3)CC[C@]3(C)[C@H](CC[C@@H]4[C@@]5(C)CC=C(c6ccc(C(=O)O)cc6)C(C)(C)[C@@H]5CC[C@]43C)[C@@H]12`, the AUC at 6 h in series [4] stood at 1.71 µM·h.

With `C=C(C)[C@@H]1CC[C@]2(C(=O)O)CC[C@]3(C)[C@H](CC[C@@H]4[C@@]5(C)CC=C(c6ccc(C(=O)O)cc6C)C(C)(C)[C@@H]5CC[C@]43C)[C@@H]12`, in [5], the Ratio EC50 is 1. Also, the EC50 is 613 nM in series [2], 3900 nM in series [6] and 660 nM in series [3].

Turning to `C=C(C)[C@@H]1CC[C@]2(CN(C)CCCN3CCS(=O)(=O)CC3)CC[C@]3(C)[C@H](CC[C@@H]4[C@@]5(C)CC=C(c6ccc(C(=O)O)cc6)C(C)(C)[C@@H]5CC[C@]43C)[C@@H]12`, the half-maximal effective concentration (EC50) in series [1] turned out to be 26 nM. The same compound displayed an exposure (AUC) in series [4] (6 h) of 4.834 µM·h.

Turning to `C=C(C)[C@@H]1CC[C@]2(C(=O)NCCC(=O)O)CC[C@]3(C)[C@H](CC[C@@H]4[C@@]5(C)CC=C(c6ccc(C(=O)O)cc6)C(C)(C)[C@@H]5CC[C@]43C)[C@@H]12`, the EC50 in series [2] was 37 nM; in series [6] it was 427 nM; in [1] it was > 4000 nM; in [3], 449 nM.

`C=C(C)[C@@H]1CC[C@]2(C(=O)NCCN(CC)CC(=O)O)CC[C@]3(C)[C@H](CC[C@@H]4[C@@]5(C)CC=C(c6ccc(C(=O)O)cc6)C(C)(C)[C@@H]5CC[C@]43C)[C@@H]12`: the figures for the EC50 in series [2], in series [6] and in [1] were 3 nM, 9 nM and 64 nM, respectively.

On to `C=C(C)[C@@H]1CC[C@]2(CNCCN3CCS(=O)(=O)CC3)CC[C@]3(C)[C@H](CC[C@@H]4[C@@]5(C)CC=C(c6ccc(C(=O)O)cc6)C(C)(C)[C@@H]5CC[C@]43C)[C@@H]12`, for which the concentration for a half-maximal effect (EC50) in series [1] was found to be 6 nM.

Regarding `C=C(C)[C@@H]1CC[C@]2(C(=O)O)CC[C@]3(C)[C@H](CC[C@@H]4[C@@]5(C)CC=C(c6ccc(C(=O)O)cc6Cl)C(C)(C)[C@@H]5CC[C@]43C)[C@@H]12`, in series [5], the Ratio EC50 stood at 1. In addition, the EC50 in series [2] is 114 nM; in series [6], > 4000 nM; in [3], 117 nM.

`C=C(C)[C@@H]1CC[C@]2(C(=O)O)CC[C@]3(C)[C@H](CC[C@@H]4[C@@]5(C)CC=C(c6ccc(C(=O)O)c(C(=O)O)c6)C(C)(C)[C@@H]5CC[C@]43C)[C@@H]12`: the half-maximal effective concentration (EC50) in series [2] turned out to be 38 nM; in [6], 212 nM.

As for `C=C(C)[C@@H]1CC[C@]2(CNCCN(C)C)CC[C@]3(C)[C@H](CC[C@@H]4[C@@]5(C)CC=C(c6ccc(C(=O)O)cc6)C(C)(C)[C@@H]5CC[C@]43C)[C@@H]12`, the concentration for a half-maximal effect (EC50) in [1] turned out to be 21 nM; in series [3] it was 9 nM.

`C=C(C)[C@@H]1CC[C@]2(C(=O)N[C@@H](CN(C)C)C(=O)O)CC[C@]3(C)[C@H](CC[C@@H]4[C@@]5(C)CC=C(c6ccc(C(=O)O)cc6)C(C)(C)[C@@H]5CC[C@]43C)[C@@H]12`: the EC50 in series [2] was 46 nM; in [6] it was 772 nM; in series [1], > 160 nM.

For `C=C(C)[C@@H]1CC[C@]2(C(=O)NCCC(C)C)CC[C@]3(C)[C@H](CC[C@@H]4[C@@]5(C)CC=C(c6ccc(C(=O)O)cc6)C(C)(C)[C@@H]5CC[C@]43C)[C@@H]12`, the EC50 in series [2] was determined as 47 nM; in [6], 101 nM; in series [1], 1600 nM.

Turning to `C=C(C)[C@@H]1CC[C@]2(C(=O)NCCN3CCS(=O)(=O)CC3)CC[C@]3(C)[C@H](CC[C@@H]4[C@@]5(C)CC=C(c6ccc(C(=O)O)cc6)C(C)(C)[C@@H]5CC[C@]43C)[C@@H]12`, the values for the EC50 in series [2], in [6] and in series [1] were 2 nM, 6 nM and 60 nM, respectively. Moreover, in [4], the AUC at 6 h was 3.99 µM·h.

Take `C=C(C)[C@@H]1CC[C@]2(C(=O)O)CC[C@]3(C)[C@H](CC[C@@H]4[C@@]5(C)CC=C(c6cccc(C(=O)O)c6)C(C)(C)[C@@H]5CC[C@]43C)[C@@H]12`: in series [2], the 50% effective concentration (EC50) is > 8000 nM.

With `C=C(C)[C@@H]1CC[C@]2(C(=O)O)CC[C@]3(C)[C@H](CC[C@@H]4[C@@]5(C)CC[C@H](OC(=O)CC(C)(C)C(=O)O)C(C)(C)[C@@H]5CC[C@]43C)[C@@H]12` [BEVIRIMAT], the EC50 in series [10] was > 4000 nM; in series [20] it was 8 nM; in [18], 111 nM. Also, the clearance in series [7] was found to be 4 mL/min/kg. Moreover, in series [12], the solubility is < 1 µg/mL.
